Laboratory results published in patent publication US20180214400A1, “THE USE OF KAURANES COMPOUNDS IN THE MANUFACTURE OF MEDICAMENT FOR TREATMENT OF CADIAC HYPERTROPY AND PULMONARY HYPERTENSION” (KEY-PHARMA BIOMEDICAL INC., priority 2015, published 2018).

How the values were obtained:
cGMP = cGMP ELISA in neonatal rat fibroblasts; format: cell-based; conditions: 3 h
Experimental: Neonatal rat cardiac fibroblasts were isolated from 1-2-day-old Sprague-Dawley rats as described previously. Briefly, hearts from newborn 1-2-day-old Sprague-Dawley rats were minced on ice, and cells were isolated by trypsin incubation at 37° C. Non-cardiomyocytes were separated from the cardiomyocytes by differential pre-plating, and then cardiomyocytes were removed with fibroblasts seeded in culture dishes. The cells were passaged after 3 days, using a 0.05% trypsin solution. Cells were cultured in DEME/F12 medium with 5% fetal calf serum, and maintained at 37° C., 5% CO2 condition. cGMP levels in the neonatal rat fibroblasts after treated with vehicle or compound A or sildenafil were measured with an ELISA kit following the manufacture's instruction. Quiescent cells were cultured with different doses of compound A ([…]) or sildenafil ([…]) for 3 h. After treatment, the cells were lysed with 0.1N HCl, and performed cGMP ELISA assay.

[1] = system: Diabetic cardiomyopathy (DCM) rats; assay: Streptozotocin-induced diabetic cardiomyopathy; format: in vivo, Wistar rats; conditions: STZ diabetes, 12-16 weeks; for cardiac function comparing to group B: pressure-volume system
Experimental: Diabetic cardiomyopathy (DCM) Diabetic induced injury to the myocardium. DCM, induced by streptozotocin (STZ), along with the associated changes occurring in inflammation, oxidative stress and fibrosis markers. Wistar rats were randomly divided into four groups: group A (Normal control), group B (Diabetes), group […] group D (DM/TMZ, trimetazidine treatment). After 12-16 weeks, left ventricular function was measured by the pressure-volume system. Cardiac tissues were prepared for histological study by hematoxlyin and eosin, Sirius red staining as well as for assays of oxidative stress. Oxidative stress, inflammation, and fibrosis markers were evaluated by molecular biological techniques. All data were measured morphometrically and statistically analyzed.

[2] = Solubility of compound A sodium; format: physicochemical
Source text: Only organic solvent which are already approved by FDA for i.v. administration were used for increasing solubility of compound A. After extensive screening of several solvents, the invention disclosed an optimized solvent system for compound A, which composed of saline at pH 10.0, 25% of ethanol and 20% of propylene glycol (2%, w/w) (compound A sodium).

[3] = large amount, certain condition in vitro; cited from earlier work
[4] = system: acute ischemia-reperfusion heart injuries; conditions: cited from earlier work

solubility of sodium salt relative to compound A [2] | Compound | Stimulated production of cGMP (cGMP; 1 um) | Stimulated production of cGMP (cGMP; 10 um) | blood glucose level and insulin levels comparing to Diabetes group [1] | cardiac function comparing to group B [1] | cardiac hypertrophy [1] | mutagenicity [3] | cardioprotective effect and arrhythmia [4]
better solubility | CC12CCC3C(CCC4C(C)(C(=O)[O-])CCCC34C)(CC1=O)C2.[Na+] (stereo not shown) [Compound A-1Na] | 157 ± 43% | 207 ± 54% | no significant changes | significantly improved |  |  | 
 | COc1ccc(CN2CCNCC2)c(OC)c1OC [TMZ, trimetazidine, reference compound] |  |  | no significant changes | significantly improved | significant inhibited |  | 
 | C=C1C[C@@]23CC[C@H]4[C@@](C)(CCC[C@@]4(C)C(=O)O)[C@@H]2CC[C@]1(O)C3 (single isomer, unassigned; ent-13) [Compound B, ent-13-hydroxykaur-16-en-18-oic acid] |  |  |  |  |  | may be mutagenic | cardioprotective effect
